US20100286215A1, “BIS-AROMATIC COMPOUNDS USEFUL IN THE TREATMENT OF INFLAMMATION” (BIS-AROMATIC COMPOUNDS USEFUL IN THE TREATMENT OF …, priority 2007, published 2010)
pIC50: −log10 of the molar value.

Molecular target: T1, Recombinant human LTC4 synthase (Homo sapiens, UniProt Q16873)
T1 construct: made in house; host or cells: Pichia pastoris ('Piccia pastoralis' [sic])
T1 sequence (Q16873 1-150): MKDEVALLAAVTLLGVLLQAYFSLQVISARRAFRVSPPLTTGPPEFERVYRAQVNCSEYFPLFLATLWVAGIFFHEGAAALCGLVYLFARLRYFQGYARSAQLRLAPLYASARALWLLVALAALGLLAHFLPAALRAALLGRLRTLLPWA
Assay: LTC4 synthase assay (conversion of LTA4 methyl ester to LTC4 methyl ester, HPLC)
Assay type: biochemical
Conditions: for inhibition at 10 µM / Percantage Inhibition at 10 μM (unless specified otherwise): inhibitor concentration 10 μM; for inhibition at 10 µM: read-out: Percantage Inhibition at 10 μM (unless specified otherwise)
Procedure: In the assay LTC4 synthase catalyses the reaction where the substrate LTA4 methyl ester is converted to LTC4 methyl ester. Recombinant human LTC4 synthase is expressed in Piccia pastoralis and the purified enzyme is dissolved in 25 mM Tris-buffer pH 7.8 and stored at −20° C. The assay is performed in phosphate buffered saline (PBS) pH 7.4, supplemented with 5 mM glutathione (GSH). The reaction is terminated by addition of acetonitrile/MeOH/acetic acid (50/50/1). The assay is performed at rt in 96-well plates. Analysis of the formed LTC4 methyl ester is performed with reversed phase HPLC (Waters 2795 utilizing an Onyx Monolithic C18 column). The mobile phase consists of acetonitrile/MeOH/H2O (32.5/30/37.5) with 1% acetic acid pH adjusted with NH3 to pH 5.6, and absorbance measured at 280 nm with a Waters 2487 UV-detector.
The following is added chronologically to each well: • 1. 50 μl assay buffer, PBS with 5 mM GSH. • 2. 0.5 μl inhibitor in DMSO. • 3. 2 μl LTC4 synthase in PBS. The total protein concentration in this solution is 0.025 mg/ml. Incubation of the plate at room temperature for 10 minutes. • 4. 0.5 μl LTA4 methyl ester. Incubation of the plate at rt for 1 min. • 5. 50 μl stop solution. 80 μl of the incubation mixture is analysed with HPLC.

SMILES	inhibition at 10 µM [%]	also measured
O=C(c1ccc(Nc2cccc(Cl)c2)cc1)c1ccc(Oc2ccc(F)c(F)c2)c(C(=O)O)c1 [8:2, 5-[4-(3-Chloro-phenylamino)-benzoyl]-2-(3,4-difluoro-phenoxy)-benzoic acid]	98	
O=C(c1ccc(Nc2ccc(Cl)cc2)cc1)c1ccc(Oc2ccc(F)c(F)c2)c(C(=O)O)c1 [8:3, 5-[4-(4-Chloro-phenylamino)-benzoyl]-2-(3,4-difluoro-phenoxy)-benzoic acid]	100	
O=C(Nc1ccc(C(=O)c2ccc(Oc3ccc(F)c(F)c3)c(C(=O)O)c2)cc1)c1cccc(Cl)c1 [8:4, 5-[4-(3-Chloro-benzoylamino)-benzoyl]-2-(3,4-difluoro-phenoxy)-benzoic acid]	88	
O=C(c1ccc(Oc2ccc(C(F)(F)F)cc2)cc1)c1ccc(Oc2ccc(F)c(F)c2)c(C(=O)O)c1 [8:5, 2-(3,4-Difluoro-phenoxy)-5-[4-(4-trifluoromethyl-phenoxy)-benzoyl]-benzoic acid]	96	
CN(c1ccc(Cl)cc1)c1ccc(C(=O)c2ccc(Nc3cccc(C(F)(F)F)c3)c(C(=O)O)c2)cc1 [9:1, 5-{4-[(4-Chloro-phenyl)-methyl-amino]-benzoyl}-2-(3-trifluoromethyl-phenylamino)-benzoic acid]	90	
CN(c1ccc(Cl)cc1)c1ccc(C(=O)c2ccc(Nc3ccccc3C(F)(F)F)c(C(=O)O)c2)cc1 [9:2, 5-{4-[(4-Chloro-phenyl)-methyl-amino]-benzoyl}-2-(2-trifluoromethyl-phenylamino)-benzoic acid]	55	
CN(c1ccc(Cl)cc1)c1ccc(C(=O)c2ccc(Nc3ccc(C(F)(F)F)cc3)c(C(=O)O)c2)cc1 [9:3, 5-{4-[(4-Chloro-phenyl)-methyl-amino]-benzoyl}-2-(4-trifluoromethyl-phenylamino)-benzoic acid]	86	
CN(c1ccc(Cl)cc1)c1ccc(C(=O)c2ccc(Oc3cccc4c3CCCC4)c(-c3nnn[nH]3)c2)cc1 [10:1, {4-[(4-Chloro-phenyl)-methyl-amino]-phenyl}-[4-(5,6,7,8-tetrahydro-naphthalen-1-yloxy)-3-(1H-tetrazol-5-yl)-phenyl]-methanone]	97	
CN(c1ccc(Cl)cc1)c1ccc(C(=O)c2ccc(Oc3cccc(Cl)c3)c(-c3nnn[nH]3)c2)cc1 [10:2, [4-(3-Chloro-phenoxy)-3-(1H-tetrazol-5-yl)-phenyl]-{4-[(4-chloro-phenyl)-methyl-amino]-phenyl}-methanone]	84	
CN(c1ccc(Cl)cc1)c1ccc(C(=O)c2ccc(Nc3ccc(C(F)(F)F)cc3)c(-c3nnn[nH]3)c2)cc1 [10:3, {4-[(4-Chloro-phenyl)-methyl-amino]-phenyl}-[3-(1H-tetrazol-5-yl)-4-(4-trifluoromethyl-phenylamino)-phenyl]-methanone]	71	
CN(c1ccc(Cl)cc1)c1ccc(C(=O)c2ccc(NC(=O)c3cccc(Cl)c3Cl)c(-c3nnn[nH]3)c2)cc1 [10:4, 2,3-Dichloro-N-[4-{4-[(4-chloro-phenyl)-methyl-amino]-benzoyl}-2-(1H-tetrazol-5-yl)-phenyl]-benzamide]	77	
O=C(c1ccc(Nc2ccc(Cl)cc2)c(C(=O)O)c1)c1ccc(Nc2ccc(Cl)cc2)c(C(=O)O)c1 [11:1, 5-{3-Carboxy-[4-(4-chloro-phenylamino)]-benzoyl}-2-(4-chloro-phenylamino)-benzoic acid]	97	
CN(c1ccc(Cl)cc1)c1ccc(C(=O)c2ccc(N(C)c3ccc(Cl)cc3)c(C(=O)O)c2)cc1C(=O)O [11:2, 5-{3-Carboxy-4-[(4-chlorophenyl)-methyl-amino]benzoyl}-2-[(4-chloro-phenyl)-methyl-amino]benzoic acid]	82	
O=C(c1ccc(Oc2ccc(Cl)cc2)c(C(=O)O)c1)c1ccc(Oc2ccc(Cl)cc2)c(C(=O)O)c1 [11:3, 5-{3-Carboxy-[4-(chlorophenoxy)]-benzoyl}-2-(4-chlorophenoxy)-benzoic acid]		Percantage Inhibition at 10 μM (unless specified otherwise): 97%
O=C(CC1CCCC1)Nc1ccc(C(=O)c2ccc(NC(=O)c3ccc(Cl)cc3Cl)c(C(=O)O)c2)cc1 [14:1, 5-[4-(2-Cyclopentyl-acetylamino)-benzoyl]-2-(2,4-dichloro-benzoylamino)-benzoic acid]	93	
CCCCCCC(=O)Nc1ccc(C(=O)c2ccc(NC(=O)c3ccc(Cl)cc3Cl)c(C(=O)O)c2)cc1 [14:2, 2-(2,4-Dichloro-benzoylamino)-5-(4-heptanoylamino-benzoyl)-benzoic acid]	100	
O=C(c1ccc(Nc2ccc(F)c(F)c2)c(C(=O)O)c1)c1ccc(Nc2ccc(F)c(F)c2)c(C(=O)O)c1 [Example 1, 2-(3,4-difluorophenylamino)-5-((4-(3,4-difluorophenylamino)-3-carboxyphenylcarbonyl))benzoic acid]	93	
CC(C)Oc1ccc(Nc2ccc(C(=O)c3ccc(Nc4ccc(OC(C)C)cc4)c(C(=O)O)c3)cc2C(=O)O)cc1 [Example 2, 2-(4-isopropoxyphenylamino)-5-(4-(4-isopropoxyphenylamino)-3-carboxyphenylcarbonyl)benzoic acid]	99	pIC50: 6.59
CCCCc1ccc(C(=O)Nc2ccc(C(=O)c3ccc(NC(=O)c4ccc(CCCC)cc4)c(C(=O)O)c3)cc2C(=O)O)cc1 [Example 3, 2-(4-butylbenzamido)-5-(4-(4-butylbenzamido)-3-carboxy-phenylcarbonyl)benzoic acid]	98	
O=C(c1ccc(NS(=O)(=O)c2ccc([N+](=O)[O-])cc2)c(C(=O)O)c1)c1ccc(NS(=O)(=O)c2ccc([N+](=O)[O-])cc2)c(C(=O)O)c1 [Example 4, 2-((4-nitrophenyl)sulfonylamino)-5-(3-carboxy-4-(((4-nitrophenyl)-sulfonyl)amino)benzoyl)benzoic acid]	100	pIC50: 6.72
O=C(c1ccc(NS(=O)(=O)c2ccc(Cl)c(Cl)c2)c(C(=O)O)c1)c1ccc(NS(=O)(=O)c2ccc(Cl)c(Cl)c2)c(C(=O)O)c1 [Example 5, 2-((3,4-dichlorophenyl)sulfonyl-amino)-5-(3-carboxy-4-(((3,4-dichlorophenyl)sulfonyl)amino)-benzoyl)benzoic acid]	98	
O=C(Nc1ccc(C(F)(F)F)cc1)Nc1ccc(C(=O)c2ccc(NC(=O)Nc3ccc(C(F)(F)F)cc3)c(C(=O)O)c2)cc1C(=O)O [Example 6, 2-[3-(4-trifluoromethylphenyl)-ureido]-5-{3-carboxy-4-[3-(4-trifluoromethylphenyl)ureido]-benzoyl}benzoic acid]	95	
CCCCOc1ccc(S(=O)(=O)Nc2ccc(C(=O)c3ccc(NS(=O)(=O)c4ccc(OCCCC)cc4)c(C(=O)O)c3)cc2C(=O)O)cc1 [Example 7]		Percantage Inhibition at 10 μM (unless specified otherwise): 97%
O=C(Nc1ccc(C(=O)c2ccc(NC(=O)c3ccc(C(F)(F)F)cc3F)c(C(=O)O)c2)cc1C(=O)O)c1ccc(C(F)(F)F)cc1 [Example 8, 2-(2-fluoro-4-(trifluoromethyl)benzamido)-5-(4-(4-(tri-fluoromethyl)benzamido)-3-carboxyphenylcarbonyl)-benzoic acid]	100	pIC50: 7.14
CCCCc1ccc(C(=O)Nc2ccc(C(=O)c3ccc(NC(=O)c4ccc(C(F)(F)F)cc4)c(C(=O)O)c3)cc2C(=O)O)cc1 [Example 9, 2-(4-butylbenzamido)-5-(4-(4-(trifluoromethyl)benzamido)-3-carboxyphenylcarbonyl)-benzoic acid]		inhibition at 0.3 µM (inhibitor concentration 0.3 μM, read-out: Percantage Inhibition (at a concentration of 0.3 μM)): 92%
O=C(c1ccc(NC(=O)c2ccc(Cl)cc2Cl)c(C(=O)O)c1)c1ccc(NC(=O)c2ccc(Cl)cc2Cl)c(C(=O)O)c1 [Example 10, 2-(2,4-dichlorobenzamido)-5-(4-(2,4-dichlorobenzamido)-3-carboxyphenylcarbonyl)-benzoic acid]	82	
O=C(Nc1ccc(C(=O)c2ccc(NC(=O)c3ccc(Cl)cc3Cl)c(C(=O)O)c2)cc1C(=O)O)c1ccc(OC(F)(F)F)cc1 [Example 11, 2-(4-(trifluoromethoxy)benzamido)-5-(4-(2,4-dichloro-benzamido)-3-carboxyphenyl-carbonyl)benzoic acid]	100	
CCCCOc1ccc(S(=O)(=O)Nc2ccc(C(=O)c3ccc(NC(=O)c4cccc(Cl)c4Cl)c(C(=O)O)c3)cc2C(=O)O)cc1 [Example 12, 5-[(3-Carboxy-4-(4-n-butoxy-benzenesulfonylamino)benzoyl)]-2-(2,3-dichlorobenzoylamino)benzoic acid]	98	
CCCCOc1ccc(S(=O)(=O)Nc2ccc(C(=O)c3ccc(NC(=O)c4ccc(OC(C)C)cc4)c(C(=O)O)c3)cc2C(=O)O)cc1 [Example 13, 5-[(3-Carboxy-4-(4-n-butoxy-benzenesulfonylamino)benzoyl)]-2-(4-isopropoxybenzoylamino)-benzoic acid]	100	pIC50: 7.07
